Reference: ChEMBL document CHEMBL5247642, “Structural Optimization of Fibroblast Growth Factor Receptor Inhibitors for Treating Solid Tumors” (J Med Chem, 2023)
≈ marks a conversion by molar mass, not a printed value. Calls of active or inactive are those of the source. The rule behind the calls is not given here.

What was measured:
[1] = target: T1, Fibroblast growth factor receptor 1 (Homo sapiens, UniProt P11362); conditions: dose 1.0 nM, time 60.0 min
Target sequence in this assay (P11362 22-822 limits assumed): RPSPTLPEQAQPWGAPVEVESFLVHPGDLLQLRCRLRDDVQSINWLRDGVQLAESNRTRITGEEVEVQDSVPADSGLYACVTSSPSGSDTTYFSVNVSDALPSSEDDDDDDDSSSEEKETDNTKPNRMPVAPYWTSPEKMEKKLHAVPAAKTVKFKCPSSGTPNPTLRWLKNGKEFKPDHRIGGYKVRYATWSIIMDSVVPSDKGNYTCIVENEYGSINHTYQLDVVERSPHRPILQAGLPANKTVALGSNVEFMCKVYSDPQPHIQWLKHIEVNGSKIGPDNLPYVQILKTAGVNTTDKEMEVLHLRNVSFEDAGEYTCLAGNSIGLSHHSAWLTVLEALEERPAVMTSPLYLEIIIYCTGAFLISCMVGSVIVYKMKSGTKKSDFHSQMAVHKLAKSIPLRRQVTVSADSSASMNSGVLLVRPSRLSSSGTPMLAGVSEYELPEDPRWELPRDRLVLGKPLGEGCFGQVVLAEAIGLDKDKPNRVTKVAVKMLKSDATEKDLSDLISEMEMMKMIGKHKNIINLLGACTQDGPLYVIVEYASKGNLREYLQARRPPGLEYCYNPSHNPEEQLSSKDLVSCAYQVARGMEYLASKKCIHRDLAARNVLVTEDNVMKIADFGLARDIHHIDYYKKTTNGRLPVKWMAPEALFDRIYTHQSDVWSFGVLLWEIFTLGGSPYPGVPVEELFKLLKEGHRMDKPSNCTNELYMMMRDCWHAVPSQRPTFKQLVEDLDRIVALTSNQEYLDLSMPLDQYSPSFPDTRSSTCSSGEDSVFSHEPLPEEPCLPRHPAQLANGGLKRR

[2] = target: T1, Fibroblast growth factor receptor 1; conditions: dose 10.0 nM, time 60.0 min
Target sequence in this assay (P11362 22-822 limits assumed): as above

SNU-16 = test: Antiproliferative activity against human SNU-16 cells assessed as reduction in cell viability measured for 72 hrs; type: functional, cell-based; conditions: SNU-16, 72 h
[3] = target: T1, Fibroblast growth factor receptor 1; conditions: dose 100.0 nM, time 60.0 min
Target sequence in this assay (P11362 22-822 limits assumed): as above

[4] = Solubility of compound in PBS at pH 7.4 at 1 to 100 microg/ml by laser nephelometry analysis; type: physicochemical; conditions: dose 1-100 µg/ml
[5] = target: T1, Fibroblast growth factor receptor 1; test: Inhibition of FGFR1 (unknown origin) using Poly (Glu,Tyr) 4:1 as substrate incubated for 60 mins in presence of ATP by ELISA analysis
Target sequence in this assay (P11362 whole entry): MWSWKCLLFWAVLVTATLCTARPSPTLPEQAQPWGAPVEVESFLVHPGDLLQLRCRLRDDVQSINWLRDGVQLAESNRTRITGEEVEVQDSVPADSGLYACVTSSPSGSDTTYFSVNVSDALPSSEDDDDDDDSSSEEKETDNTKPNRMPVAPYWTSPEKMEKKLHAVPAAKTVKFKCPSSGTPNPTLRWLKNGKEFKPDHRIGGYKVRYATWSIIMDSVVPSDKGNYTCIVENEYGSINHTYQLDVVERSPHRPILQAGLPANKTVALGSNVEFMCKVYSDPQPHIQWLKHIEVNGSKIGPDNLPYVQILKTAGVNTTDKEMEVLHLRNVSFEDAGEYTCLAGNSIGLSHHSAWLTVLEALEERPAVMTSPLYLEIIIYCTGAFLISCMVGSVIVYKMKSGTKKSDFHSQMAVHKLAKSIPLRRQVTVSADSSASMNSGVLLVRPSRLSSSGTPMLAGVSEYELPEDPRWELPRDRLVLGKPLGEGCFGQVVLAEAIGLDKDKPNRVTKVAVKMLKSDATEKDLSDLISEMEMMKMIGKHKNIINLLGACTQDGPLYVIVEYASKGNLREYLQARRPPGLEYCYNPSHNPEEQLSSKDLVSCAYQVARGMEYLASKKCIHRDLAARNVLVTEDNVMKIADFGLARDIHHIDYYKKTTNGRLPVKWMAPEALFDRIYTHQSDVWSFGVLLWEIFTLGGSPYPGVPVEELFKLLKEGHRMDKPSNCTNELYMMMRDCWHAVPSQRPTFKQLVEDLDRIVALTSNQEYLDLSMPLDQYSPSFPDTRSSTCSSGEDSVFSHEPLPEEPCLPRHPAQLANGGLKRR

[6] = Stability in rat whole blood assessed as parent compound remaining measured upto 5 hrs by LC-MS/MS analysis; type: ADME, tissue-based
[7] = GSH reactivity in PBS buffer assessed as percentage peak area ratio incubated for 24 hrs by LC-MS/MS analysis; type: physicochemical
NCI-H1581 = test: Antiproliferative activity against human NCI-H1581 cells expressing FGFR1 assessed as reduction in cell viability measured after 72 hrs; type: functional, cell-based; conditions: NCI-H1581, 72 h
NCI-H716 = test: Antiproliferative activity against human NCI-H716 cells expressing FGFR2 assessed as reduction in cell viability measured after 72 hrs; type: functional, cell-based; conditions: NCI-H716, 72 h
[8] = Solubility of compound in PBS at pH 7.4; type: physicochemical
[9] = target: Fibroblast growth factor receptor (Homo sapiens) (UniProt P22607+P11362+P22455+P21802); test: Inhibition of FGFR signalling in human SNU-16 assessed as inhibition of pErk phosphorylation at 0.1 nM incubated for 2 hrs by Western blot analysis; type: cell-based
[10] = Stability in rat whole blood assessed as parent compound remaining measured after 2 hrs by LC-MS/MS analysis; type: ADME, tissue-based; conditions: read-out: Stability
[11] = target: Fibroblast growth factor receptor 2 (Homo sapiens, UniProt P21802); test: Inhibition of FGFR2 (unknown origin) using Poly (Glu,Tyr) 4:1 as substrate incubated for 60 mins in presence of ATP by ELISA analysis
Fibroblast growth factor receptor 2, sequence (P21802 whole entry): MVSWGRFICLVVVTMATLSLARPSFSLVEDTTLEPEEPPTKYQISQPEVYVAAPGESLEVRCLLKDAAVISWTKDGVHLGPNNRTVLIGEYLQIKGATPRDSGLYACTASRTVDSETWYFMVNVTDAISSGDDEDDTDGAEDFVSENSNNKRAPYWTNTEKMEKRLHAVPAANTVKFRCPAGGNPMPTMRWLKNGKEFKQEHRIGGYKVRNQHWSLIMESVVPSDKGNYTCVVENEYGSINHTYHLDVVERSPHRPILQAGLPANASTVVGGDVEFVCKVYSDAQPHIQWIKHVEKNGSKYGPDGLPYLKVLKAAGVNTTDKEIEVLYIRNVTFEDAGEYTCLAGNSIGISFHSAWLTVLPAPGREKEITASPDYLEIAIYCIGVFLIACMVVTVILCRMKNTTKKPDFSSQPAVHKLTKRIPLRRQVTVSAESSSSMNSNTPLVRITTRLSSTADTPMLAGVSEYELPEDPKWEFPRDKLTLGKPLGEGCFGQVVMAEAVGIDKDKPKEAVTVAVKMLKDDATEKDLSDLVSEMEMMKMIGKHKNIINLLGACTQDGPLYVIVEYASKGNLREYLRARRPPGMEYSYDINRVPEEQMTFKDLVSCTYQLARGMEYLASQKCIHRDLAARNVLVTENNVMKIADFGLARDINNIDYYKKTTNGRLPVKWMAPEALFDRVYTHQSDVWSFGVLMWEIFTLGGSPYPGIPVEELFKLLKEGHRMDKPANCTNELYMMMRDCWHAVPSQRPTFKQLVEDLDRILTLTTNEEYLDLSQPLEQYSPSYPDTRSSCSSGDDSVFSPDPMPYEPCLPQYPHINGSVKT

[12] = target: Voltage-gated inwardly rectifying potassium channel KCNH2 (Homo sapiens, UniProt Q12809); test: Inhibition of hERG expressed in CHO cells at -80 mV holding potential by automated patch clamp method; type: toxicity, cell-based
Voltage-gated inwardly rectifying potassium channel KCNH2, sequence (Q12809 whole entry): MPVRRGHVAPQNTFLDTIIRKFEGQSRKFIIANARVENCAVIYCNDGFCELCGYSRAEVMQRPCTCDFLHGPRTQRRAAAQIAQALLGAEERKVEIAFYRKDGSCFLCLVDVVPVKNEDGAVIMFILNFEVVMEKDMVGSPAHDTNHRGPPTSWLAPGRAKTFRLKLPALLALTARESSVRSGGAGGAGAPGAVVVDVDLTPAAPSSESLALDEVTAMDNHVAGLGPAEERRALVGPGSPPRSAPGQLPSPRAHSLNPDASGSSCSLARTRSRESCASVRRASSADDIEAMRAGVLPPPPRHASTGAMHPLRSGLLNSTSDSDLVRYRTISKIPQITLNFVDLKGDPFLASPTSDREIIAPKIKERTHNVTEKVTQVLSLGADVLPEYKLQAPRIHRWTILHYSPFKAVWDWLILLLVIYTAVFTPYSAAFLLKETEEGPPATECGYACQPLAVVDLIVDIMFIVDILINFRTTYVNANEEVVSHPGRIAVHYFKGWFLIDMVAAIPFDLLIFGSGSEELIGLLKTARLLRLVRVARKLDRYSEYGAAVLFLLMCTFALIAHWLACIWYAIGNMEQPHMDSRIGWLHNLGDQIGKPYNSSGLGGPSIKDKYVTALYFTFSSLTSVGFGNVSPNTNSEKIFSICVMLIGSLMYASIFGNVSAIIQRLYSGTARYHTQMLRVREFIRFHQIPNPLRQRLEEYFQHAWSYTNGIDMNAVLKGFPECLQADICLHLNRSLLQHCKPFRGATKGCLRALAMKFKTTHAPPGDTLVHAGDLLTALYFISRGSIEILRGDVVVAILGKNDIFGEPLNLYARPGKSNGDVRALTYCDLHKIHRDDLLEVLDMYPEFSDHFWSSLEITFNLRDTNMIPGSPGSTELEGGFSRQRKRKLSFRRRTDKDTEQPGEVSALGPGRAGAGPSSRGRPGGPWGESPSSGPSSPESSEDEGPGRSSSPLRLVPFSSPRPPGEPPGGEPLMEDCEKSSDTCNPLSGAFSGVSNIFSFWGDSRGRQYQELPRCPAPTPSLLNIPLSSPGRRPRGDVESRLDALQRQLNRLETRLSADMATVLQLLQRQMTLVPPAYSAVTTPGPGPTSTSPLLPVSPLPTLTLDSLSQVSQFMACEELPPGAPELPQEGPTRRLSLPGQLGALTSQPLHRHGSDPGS

[13] = target: Fibroblast growth factor receptor 3 (Homo sapiens, UniProt P22607); test: Inhibition of FGFR3 (unknown origin) using Poly (Glu,Tyr) 4:1 as substrate incubated for 60 mins in presence of ATP by ELISA analysis
Fibroblast growth factor receptor 3, sequence (P22607 whole entry): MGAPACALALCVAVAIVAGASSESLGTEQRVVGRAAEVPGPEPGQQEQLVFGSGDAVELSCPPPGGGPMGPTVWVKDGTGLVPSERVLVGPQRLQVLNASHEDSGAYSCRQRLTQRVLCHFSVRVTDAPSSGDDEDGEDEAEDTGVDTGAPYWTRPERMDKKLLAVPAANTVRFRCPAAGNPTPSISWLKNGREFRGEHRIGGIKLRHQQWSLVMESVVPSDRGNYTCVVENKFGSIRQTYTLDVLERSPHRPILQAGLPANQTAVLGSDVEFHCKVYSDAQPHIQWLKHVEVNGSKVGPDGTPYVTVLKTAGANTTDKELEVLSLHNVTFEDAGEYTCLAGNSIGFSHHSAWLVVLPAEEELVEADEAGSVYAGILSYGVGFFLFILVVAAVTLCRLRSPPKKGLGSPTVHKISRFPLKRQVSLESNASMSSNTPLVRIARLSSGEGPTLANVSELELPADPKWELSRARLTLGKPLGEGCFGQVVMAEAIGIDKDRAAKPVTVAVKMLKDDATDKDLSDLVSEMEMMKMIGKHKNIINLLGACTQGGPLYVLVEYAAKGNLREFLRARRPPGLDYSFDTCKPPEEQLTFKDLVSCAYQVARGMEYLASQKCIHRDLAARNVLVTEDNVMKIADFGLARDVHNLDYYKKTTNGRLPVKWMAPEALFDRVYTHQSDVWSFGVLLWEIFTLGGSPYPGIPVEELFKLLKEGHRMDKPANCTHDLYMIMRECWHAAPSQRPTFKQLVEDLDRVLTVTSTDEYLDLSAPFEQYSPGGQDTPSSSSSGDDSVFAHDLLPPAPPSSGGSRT

[14] = target: Fibroblast growth factor receptor 4 (Homo sapiens, UniProt P22455); test: Inhibition of FGFR4 (unknown origin) using Poly (Glu,Tyr) 4:1 as substrate incubated for 60 mins in presence of ATP by ELISA analysis

Row | Compound | IC50 (SNU-16) [nM] | inhibition [3] [%] | solubility kinetic [4] [µg/mL] | IC50 [5] [nM] | also measured
1 | C=CC(=O)N[C@H]1CC[C@H](n2nc3c(=O)[nH]nc(N)c3c2-c2oc3ccc(C)cc3c2C)CC1 | 3.1 | 85.7 |  |  | inhibition [1]: 32.4%; inhibition [2]: 47.4%
2 | C=CC(=O)N1CCC(n2nc3c(=O)[nH]nc(N)c3c2-c2oc3cc(F)ccc3c2C)CC1 | 1.5 |  | 10 (≈ 22.9 µM) | 6.5 | 
3 | CCC#CC(=O)N1CCC(n2nc3c(=O)[nH]nc(N)c3c2-c2oc3ccc(C)cc3c2C)CC1 | < 0.3 |  | 1 (≈ 2.18 µM) | 7.71 | 
4 | C=CC(=O)N1CCC(n2nc3c(=O)[nH]nc(N)c3c2-c2oc3ccc(F)cc3c2C)CC1 |  | 20 |  |  | 
5 | CC#CC(=O)N1CCC(n2nc3c(=O)[nH]nc(N)c3c2-c2oc3ccc(C)cc3c2C)CC1 | < 0.3 |  | 1 (≈ 2.25 µM) | 6.7 | Stability [6]: Stable; Activity [7]: 87%
6 | C#CC(=O)N1CCC(n2nc3c(=O)[nH]nc(N)c3c2-c2oc3ccc(C)cc3c2C)CC1 | < 0.3 |  | 10 (≈ 23.2 µM) | 0.9 | Stability [6]: Unstable; Activity [7]: 0%
7 | C=CC(=O)N1CCC(Cn2nc3c(=O)[nH]nc(N)c3c2-c2oc3ccc(C)cc3c2C)CC1 | 2 | 61.6 | 10 (≈ 22.4 µM) |  | inhibition [1]: 29.5%; inhibition [2]: 48.3%
8 | C#CC(=O)N1CCCC(n2nc3c(=O)[nH]nc(N)c3c2-c2oc3ccc(C)cc3c2C)C1 (racemic) | 15.8 |  |  | 3.9 | 
9 | C=C(F)C(=O)N1CCC(n2nc3c(=O)[nH]nc(N)c3c2-c2oc3ccc(C)cc3c2C)CC1 |  |  | 10 (≈ 22.2 µM) |  | 
10 | CCC#CC(=O)N1CCCC(n2nc3c(=O)[nH]nc(N)c3c2-c2oc3ccc(C)cc3c2C)C1 (racemic) | 36.4 |  |  | 25.4 | 
11 | C=CC(=O)N1CCC(n2nc3c(=O)[nH]nc(N)c3c2-c2oc3ccc(Cl)cc3c2C)CC1 | 9 |  |  | 2 | 
12 | COc1cc(CCc2cc(NC(=O)c3ccc(N4C[C@@H](C)N[C@@H](C)C4)cc3)n[nH]2)cc(OC)c1 [FEXAGRATINIB] | 3.7 |  |  |  | IC50 (NCI-H1581): 15.8 nM; IC50 (NCI-H716): 0.6 nM
13 | C=CC(=O)N1CCC(n2nc3c(=O)[nH]nc(N)c3c2-c2oc3ccc(C(F)(F)F)cc3c2C)CC1 |  | 27 |  |  | 
14 | C=CC(=O)Nc1ccc(-n2nc3c(=O)[nH]nc(N)c3c2-c2oc3ccc(C)cc3c2C)cc1 |  |  | 1 (≈ 2.27 µM) |  | solubility [8]: 1 µg/mL (≈ 2.27 µM)
15 | CN(C)C/C=C/C(=O)Nc1cc2c(Nc3ccc(F)c(Cl)c3)ncnc2cc1O[C@H]1CCOC1 [AFATINIB] |  |  | 50 (≈ 103 µM) |  | 
16 | Cc1ccc2oc(-c3c4c(N)n[nH]c(=O)c4nn3C3CCN(C(=O)C#CCO)CC3)c(C)c2c1 | 16.6 |  |  | 2.2 | 
17 | Cc1ccc2oc(-c3c4c(N)n[nH]c(=O)c4nn3C3CCCN(C(=O)/C=C/CN(C)C)C3)c(C)c2c1 (racemic) |  |  | 10 (≈ 20.4 µM) | 117 | 
18 | C=CC(=O)N1CCC(n2nc3c(=O)[nH]nc(N)c3c2-c2oc3ccc(C)cc3c2C)CC1 | < 0.05 | 91.2 | 10 (≈ 23.1 µM) | 8 | Stability [6]: Stable; inhibition [1]: 14.2%; inhibition [9]: Active; remaining at 2 h [10]: > 40%; inhibition [2]: 78.2%; Activity [7]: 84%; IC50 [11]: 4.4 nM; IC50 [12]: 1130 nM; IC50 [13]: 18.7 nM; IC50 [14]: 45.5 nM
19 | Cc1ccc2oc(-c3c4c(N)n[nH]c(=O)c4nn3C3CCCN(C(=O)C#CCO)C3)c(C)c2c1 (racemic) | 82.9 |  |  | 21.9 | 
20 | C=CC(=O)N1CCC[C@@H](n2nc(-c3ccc(Oc4ccccc4)cc3)c3c(N)ncnc32)C1 [IBRUTINIB] |  |  | 10 (≈ 22.7 µM) |  | 
21 | Cc1ccc2oc(-c3c4c(N)n[nH]c(=O)c4nn3C3CCCN(C(=O)CC#N)C3)c(C)c2c1 (racemic) |  | 31 |  |  | 

More lines, main results first:

Row | IC50 (SNU-16) [nM] | inhibition [3] [%] | solubility kinetic [4] [µg/mL] | IC50 [5] [nM] | Compound | also measured
22 | 8.9 |  |  | 101 | C=CC(=O)N1CCC(n2nc3c(=O)[nH]nc(N)c3c2-c2oc3cc(OC)ccc3c2C)CC1 | 
23 | 35.2 |  |  | 27.3 | CC#CC(=O)N1CCCC(n2nc3c(=O)[nH]nc(N)c3c2-c2oc3ccc(C)cc3c2C)C1 (racemic) | 
24 | < 0.3 |  |  | 6.4 | C=CC(=O)N1CCCC(n2nc3c(=O)[nH]nc(N)c3c2-c2oc3ccc(Cl)cc3c2C)C1 (racemic) | 
25 |  | 37 |  |  | C/C=C(\C)C(=O)N1CCCC(n2nc3c(=O)[nH]nc(N)c3c2-c2oc3ccc(C)cc3c2C)C1 (racemic) | 
26 |  | 40 |  |  | C=CC(=O)N1CCCC(n2nc3c(=O)[nH]nc(N)c3c2-c2oc3cc(OC)cc(OC)c3c2C)C1 (racemic) | 
27 |  | 32 |  |  | C=CC(=O)N1CCCC(n2nc3c(=O)[nH]nc(N)c3c2-c2oc3cccc(OC)c3c2C)C1 (racemic) | 
28 |  |  |  | 122 | CC/C=C/C(=O)N1CCCC(n2nc3c(=O)[nH]nc(N)c3c2-c2oc3ccc(C)cc3c2C)C1 (racemic) | 
29 | < 0.3 |  |  | 111 | C=CC(=O)N1CCC(n2nc3c(=O)[nH]nc(N)c3c2-c2oc3cccc(OC)c3c2C)CC1 | 
30 |  |  |  | 67.7 | C/C=C/C(=O)N1CCCC(n2nc3c(=O)[nH]nc(N)c3c2-c2oc3ccc(C)cc3c2C)C1 (racemic) | 
31 |  | 44 |  | 84.4 | C=CC(=O)N1CCC(n2nc3c(=O)[nH]nc(N)c3c2-c2oc3cc(OC)cc(OC)c3c2C)CC1 | 
32 |  | 36 |  |  | C=C(C)C(=O)N1CCCC(n2nc3c(=O)[nH]nc(N)c3c2-c2oc3ccc(C)cc3c2C)C1 (racemic) | 
33 |  | 44 |  |  | C=CC(=O)N1CCC(n2nc3c(=O)[nH]nc(N)c3c2-c2oc3ccc(OC)cc3c2C)CC1 | 
34 |  | 11 |  |  | C=CC(=O)N1CCCC(n2nc3c(=O)[nH]nc(N)c3c2-c2oc3cc(OC)ccc3c2C)C1 (racemic) | 
35 | < 0.3 |  | 10 (≈ 23.1 µM) | 2.3 | C=CC(=O)N1CCC(n2nc3c(=O)[nH]nc(N)c3c2-c2oc3cc(C)ccc3c2C)CC1 | 
